Laboratory results taken from patent publication US11976083B2, “Inhibitors of peptidylarginine deiminases” (Gilead Sciences, Inc., priority 2020, dated 2024).

Molecular target: T1, human PAD4 (Homo sapiens, UniProt Q9UM07)
T1 construct: human PAD4 (NM_012387), A2-P663, was PCR amplified; His-SUMO (N, cleaved yes); made in house; host or cells: E. coli BL21(DE3)
Assay: In vitro PAD4 BAEE biochemical assay
Conditions: BAEE substrate 3 mM, 5 nM PAD4, 2 mM calcium chloride; geometric mean of multiple experiments
Procedure, shortened: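 Assay was run at 25 °C using 3 mM BAEE and 5 nM human PAD4 after a 30 min compound preincubation; ammonia produced over 2 h was quantified by OPA-derived fluorescence. Full inhibition was defined by 50 µM BB-Cl-Amidine, and IC50 came from variable-slope nonlinear regression.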

T1 sequence (Q9UM07 2-663): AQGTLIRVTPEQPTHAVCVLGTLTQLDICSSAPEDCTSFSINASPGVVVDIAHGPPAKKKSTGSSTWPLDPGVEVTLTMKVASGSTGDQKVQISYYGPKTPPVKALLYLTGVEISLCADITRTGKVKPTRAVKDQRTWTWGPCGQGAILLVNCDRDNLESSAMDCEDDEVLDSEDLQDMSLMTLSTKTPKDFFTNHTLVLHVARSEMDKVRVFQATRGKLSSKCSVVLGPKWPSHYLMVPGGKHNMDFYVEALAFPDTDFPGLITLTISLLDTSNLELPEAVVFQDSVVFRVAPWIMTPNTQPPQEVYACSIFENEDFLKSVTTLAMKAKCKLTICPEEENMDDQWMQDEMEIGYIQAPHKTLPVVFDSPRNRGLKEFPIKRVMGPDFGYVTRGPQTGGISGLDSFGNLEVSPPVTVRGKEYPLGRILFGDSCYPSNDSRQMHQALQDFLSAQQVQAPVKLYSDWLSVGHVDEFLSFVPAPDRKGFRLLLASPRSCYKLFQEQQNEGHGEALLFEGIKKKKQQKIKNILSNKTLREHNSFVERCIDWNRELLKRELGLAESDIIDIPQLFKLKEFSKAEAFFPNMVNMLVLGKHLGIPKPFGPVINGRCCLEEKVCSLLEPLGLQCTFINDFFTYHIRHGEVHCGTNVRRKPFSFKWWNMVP

SMILES | IC50 [nM]
COc1cc(C(=O)N2CC[C@@H](OC)[C@@H](N)C2)cc2nc(-c3cc4ccc5nc4n3CCCCCC[C@](F)(c3ccccn3)C(=O)N[C@@H]5C)n(C)c12 [Example 869, (8~{S},11~{R})-17-[5-[(3~ {S},4~{R})-3-amino-4-methoxy-piperidine-1-carbonyl]-7-methoxy-1-methyl-benzimidazol-2-yl]-8-fluoro-11-methyl-8-(2-pyridyl)-1,10,19-triazatricyclo[10.5.2.0^ {15,18}]nonadeca-12(19), 13,15(18),16-tetraen-9-one] | 24
COc1cc(C(=O)N2CC[C@@H](OC)[C@@H](N)C2)cc2nc(-c3cc4ccc5nc4n3CCCCCC[C@@](F)(c3ccccn3)C(=O)N[C@@H]5C)n(C)c12 [Example 870, (8~{R},11~{R})-17-[5-[(3~ {S),4~{R})-3-amino-4-methoxy-piperidine-1-carbonyl]-7-methoxy-1-methyl-benzimidazol-2-yl]-8-fluoro-11-methyl-8-(2-pyridyl)-1,10,19-triazatricyclo[10.5.2.0^{15,18}] nonadeca-12(19), 13,15(18),16-tetraen-9-one] | 83
CO[C@@H]1CCN(C(=O)c2cc(F)c3c(c2)nc(-c2cc4ccc5nc4n2CCCCCCC(c2ccccn2)C(=O)N[C@@H]5C)n3C2CC2)C[C@@H]1N (some centres unmarked) [Example 871, (11~{R})-17-[5-[(3~{S), 4~{R})-3-amino-4-methoxy-piperidine-1-carbonyl]-1-cyclopropyl-7-fluoro-benzimidazol-2-yl]-11-methyl-8-(2-pyridyl)-1,10,19-triazatricyclo[10.5.2.0^{15,18}] nonadeca-12(19), 13,15(18),16-tetraen-9-one] | 31
CO[C@@H]1CCN(C(=O)c2cc(F)c3c(c2)nc(-c2cc4ccc5nc4n2CCCCCC[C@H](c2cccc(Cl)n2)C(=O)N[C@@H]5C)n3C2CC2)C[C@@H]1N [Example 872, (8~{R},11~{R})-17-[5-[(3~ {S},4~{R})-3-amino-4-methoxy-piperidine-1-carbonyl]-1-cyclopropyl-7-fluoro-benzimidazol-2-yl]-8-(6-chloro-2-pyridyl)-11-methyl-1,10,19-triazatricyclo[10.5.2.0^ {15,18}]nonadeca-12(19), 13,15(18),16-tetraen-9-one] | 90
CO[C@@H]1CCN(C(=O)c2cc(F)c3c(c2)nc(-c2cc4ccc5nc4n2CCCCCC[C@@H](c2cccc(Cl)n2)C(=O)N[C@@H]5C)n3C2CC2)C[C@@H]1N [Example 873, (8~{S},11~{R})-17-[5-[(3~{S}, 4~{R})-3-amino-4-methoxy-piperidine-1-carbonyl]-1-cyclopropyl-7-fluoro-benzimidazol-2-yl]-8-(6-chloro-2-pyridyl)-11-methyl-1,10,19-triazatricyclo[10.5.2.0^{15,18}] nonadeca-12(19), 13,15(18),16-tetraen-9-one] | 120
[2H]C1([2H])CCCC[C@@H]2C[C@H]2C(=O)N[C@H](C)c2ccc3cc(-c4nc5cc(C(=O)N6CC[C@@H](OC)[C@@H](N)C6)cc(F)c5n4C4CC4)n1c3n2 [Example 874, (2~{R},5~{R},7~{R})-14-[5-[(3~{S},4~{R})-3-amino-4-methoxy-piperidine-1-carbonyl]-1-cyclopropyl-7-fluoro-benzimidazol-2-yl]-12,12-dideuterio-2-methyl-3,13,19-triazatetracyclo[11.5.2.0^ {5,7}.0^{16,20}]icosa-1(19), 14,16(20),17-tetraen-4-one] | 29
CO[C@@H]1CCN(C(=O)c2cc(F)c3c(c2)nc(-c2cc4ccc5nc4n2CCCCCC[C@@](F)(c2cccc(Cl)n2)C(=O)N[C@@H]5C)n3C2CC2)C[C@@H]1N [Example 875, (8~{R},11~{R})-17-[5-[(3~{S), 4~{R})-3-amino-4-methoxy-piperidine-1-carbonyl]-1-cyclopropyl-7-fluoro-benzimidazol-2-yl]-8-(6-chloro-2-pyridyl)-8-fluoro-11-methyl-1,10,19-triazatricyclo[10.5.2.0^{15,18}] nonadeca-12(19), 13,15(18),16-tetraen-9-one] | 148
CO[C@@H]1CCN(C(=O)c2cc(F)c3c(c2)nc(-c2cc4ccc5nc4n2CCCCCC[C@](F)(c2cccc(Cl)n2)C(=O)N[C@@H]5C)n3C2CC2)C[C@@H]1N [Example 876, (8~{S},11~{R})-17-[5-[(3~{S}, 4~{R})-3-amino-4-methoxy-piperidine-1-carbonyl]-1-cyclopropyl-7-fluoro-benzimidazol-2-yl]-8-(6-chloro-2-pyridyl)-8-fluoro-11-methyl-1,10,19-triazatricyclo [10.5.2.0^{15,18}]nonadeca-12(19),13,15(18), 16-tetraen-9-one] | 122
C[C@H]1NC(=O)c2nccnc2CCCCCn2c(-c3nc4cc(C(=O)N5C[C@H](N)[C@@H]6CC[C@H]5C6)c(F)c(F)c4n3C3CC3)cc3ccc1nc32 [Example 877, (2~{R})-17-[5-[(1~{S},4~{R}, 5~{})-4-amino-2-azabicyclo [3.2.1]octane-2-carbonyl]-1-cyclopropyl-6,7-difluoro-benzimidazol-2-yl]-2-methyl-3,6,9,16,22-pentazatetracyclo [14.5.2.0^{5,10}.0^{19,23}] tricosa-1(22),5(10),6,8,17,19(23), 20-heptaen-4-one] | 40
C[C@H]1NC(=O)c2ccc(Cl)nc2CC[C@H]2C[C@@H]2Cn2c(-c3nc4cc(C(=O)N5C[C@H](N)[C@@H]6CC[C@H]5C6)cc(F)c4n3C3CC3)cc3ccc1nc32 [Example 878, (3~{S},5~{S},16~{R})-22-[5-[(1~{S},4~{R},5~{R})-4-amino-2-azabicyclo[3.2.1]octane-2-carbonyl]-1-cyclopropyl-7-fluoro-benzimidazol-2-yl]-10-chloro-16-methyl-1,9,15,24-tetrazapentacyclo [15.5.2.0^{3,5}.0^ {8,13}.0^{20,23}]tetracosa-8(13),9,11,17(24),18,20(23), 21-heptaen-14-one] | 26
C[C@H]1NC(=O)c2ccc(Cl)nc2CC[C@@H]2C[C@H]2Cn2c(-c3nc4cc(C(=O)N5C[C@H](N)[C@@H]6CC[C@H]5C6)cc(F)c4n3C3CC3)cc3ccc1nc32 [Example 879, (3~{R},5~{R},16~{R})-22-[5-[(1~{S},4~{R}, 5~{R})-4-amino-2-azabicyclo[3.2.1]octane-2-carbonyl]-1-cyclopropyl-7-fluoro-benzimidazol-2-yl]-10-chloro-16-methyl-1,9,15,24-tetrazapentacyclo[15.5.2.0^ {3,5}.0^{8,13}.0^{20,23}] tetracosa-8(13),9,11,17(24), 18,20(23),21-heptaen-14-one] | 34
C[C@H]1NC(=O)[C@H]2C[C@@H]2CC(F)(F)CCCn2c(-c3nc4cc(C(=O)N5C[C@H](N)[C@@H]6CC[C@H]5C6)cc(F)c4n3C3CC3)cc3ccc1nc32 [Example 880, (2~{R},5~{S},7~{R})-14-[5-[(1~{S},4~{R},5~{R})-4-amino-2-azabicyclo[3.2.1]octane-2-carbonyl]-1-cyclopropyl-7-fluoro-benzimidazol-2-yl]-9,9-difluoro-2-methyl-3,13,19-triazatetracyclo [11.5.2.0^{5,7}.0^{16,20}] icosa-1(19),14,16(20), 17-tetraen-4-one] | 39
C[C@H]1NC(=O)[C@@H]2C[C@H]2CC(F)(F)CCCn2c(-c3nc4cc(C(=O)N5C[C@H](N)[C@@H]6CC[C@H]5C6)cc(F)c4n3C3CC3)cc3ccc1nc32 [Example 881, (2~{R},5~{R},7~{S})-14-[5-[(1~{S},4~{R},5~{R})-4-amino-2-azabicyclo [3.2.1]octane-2-carbonyl]-1-cyclopropyl-7-fluoro-benzimidazol-2-yl]-9,9-difluoro-2-methyl-3,13,19-triazatetracyclo [11.5.2.0^{5,7}.0^{16,20}] icosa-1(19),14,16(20), 17-tetraen-4-one] | 24
C[C@H]1NC(=O)[C@@H]2C[C@H]2CCCCCn2c(-c3nc4cc(C(=O)N5C[C@H](N)[C@@H]6CC[C@H]5C6)cc(F)c4n3C3CC3)cc3ccc1nc32 [Example 882, (2~{R},5~{R},7~{R})-14-[5-[(1~{S),4~{R},5~{R})-4-amino-2-azabicyclo [3.2.1]octane-2-carbonyl]-1-cyclopropyl-7-fluoro-benzimidazol-2-yl]-2-methyl-3,13,19-triazatetracyclo[11.5.2.0^ {5,7}.0^{16,20}]icosa-1(19),14,16(20),17-tetraen-4-one] | 22
COc1cc(C(=O)N2C[C@H](N)[C@@H]3CC[C@H]2C3)cc2nc(-c3cc4ccc5nc4n3CCCCCC[C@](F)(c3ccccn3)C(=O)N[C@@H]5C)n(C)c12 [Example 883, (8~{S},11~{R})-17-[5-[(1~{S},4~{R},5~{R})-4-amino-2-azabicyclo[3.2.1]octane-2-carbonyl]-7-methoxy-1-methyl-benzimidazol-2-yl]-8-fluoro-11-methyl-8-(2-pyridyl)-1,10,19-triazatricyclo[10.5.2.0^ {15,18}]nonadeca-12(19), 13,15(18),16-tetraen-9-one] | 18
COc1cc(C(=O)N2C[C@H](N)[C@@H]3CC[C@H]2C3)cc2nc(-c3cc4ccc5nc4n3CCCCCC[C@@](F)(c3ccccn3)C(=O)N[C@@H]5C)n(C)c12 [Example 884, (8~{R},11~{R})-17-[5-[(1~{S),4~{R},5~{R})-4-amino-2-azabicyclo[3.2.1]octane-2-carbonyl]-7-methoxy-1-methyl-benzimidazol-2-yl]-8-fluoro-11-methyl-8-(2-pyridyl)-1,10,19-triazatricyclo[10.5.2.0^ {15,18}]nonadeca-12(19), 13,15(18),16-tetraen-9-one] | 24
C[C@H]1NC(=O)[C@@](F)(c2ccccn2)CCCCCCn2c(-c3nc4cc(C(=O)N5C[C@H](N)[C@@H]6CC[C@H]5C6)cc(F)c4n3C3CC3)cc3ccc1nc32 [Example 885, (8~{S},11~{R})-17-[5-[(1~{S},4~{R},5~{R})-4-amino-2-azabicyclo[3.2.1]octane-2-carbonyl]-1-cyclopropyl-7-fluoro-benzimidazol-2-yl]-8-fluoro-11-methyl-8-(2-pyridyl)-1,10,19-triazatricyclo[10.5.2.0^ {15,18}]nonadeca-12(19), 13,15(18),16-tetraen-9-one] | 11
